# pEC50, pIC50: −log10 of the molar value.
# Key:
# Dihydrofolate reductase [1] = target: T1, Dihydrofolate reductase (Pneumocystis carinii, UniProt P16184); assay: Inhibitory activity against Pneumocystis carinii dihydrofolate reductase
# T1 sequence (P16184 whole entry): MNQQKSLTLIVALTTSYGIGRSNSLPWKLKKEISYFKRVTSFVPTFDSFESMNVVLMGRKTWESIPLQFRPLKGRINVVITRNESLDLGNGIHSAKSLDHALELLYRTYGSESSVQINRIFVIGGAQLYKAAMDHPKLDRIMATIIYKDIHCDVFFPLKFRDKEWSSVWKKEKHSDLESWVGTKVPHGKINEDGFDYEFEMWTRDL
# [2] = target: T2, Bifunctional dihydrofolate reductase-thymidylate synthase (Toxoplasma gondii, UniProt Q07422); assay: Inhibitory activity against Toxoplasma gondii dihydrofolate reductase
# T2 sequence (Q07422 whole entry): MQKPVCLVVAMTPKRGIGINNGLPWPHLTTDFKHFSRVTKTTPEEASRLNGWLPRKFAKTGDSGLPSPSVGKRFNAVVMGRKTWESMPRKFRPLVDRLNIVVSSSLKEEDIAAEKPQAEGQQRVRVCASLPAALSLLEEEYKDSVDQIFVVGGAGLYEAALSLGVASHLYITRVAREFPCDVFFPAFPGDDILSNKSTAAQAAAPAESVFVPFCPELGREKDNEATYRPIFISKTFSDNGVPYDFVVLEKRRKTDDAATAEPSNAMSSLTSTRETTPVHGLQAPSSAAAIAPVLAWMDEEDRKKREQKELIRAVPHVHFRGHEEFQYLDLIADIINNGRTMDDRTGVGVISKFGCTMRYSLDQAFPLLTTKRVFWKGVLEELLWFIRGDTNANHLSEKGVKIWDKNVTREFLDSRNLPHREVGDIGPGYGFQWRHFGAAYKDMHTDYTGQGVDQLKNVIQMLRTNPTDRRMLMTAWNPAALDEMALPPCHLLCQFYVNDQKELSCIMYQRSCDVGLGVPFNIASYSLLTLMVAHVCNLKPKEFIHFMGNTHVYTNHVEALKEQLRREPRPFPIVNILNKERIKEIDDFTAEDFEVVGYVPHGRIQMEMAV
# Dihydrofolate reductase [3] = target: T3, Dihydrofolate reductase (Rattus norvegicus, UniProt Q920D2); assay: Inhibition of rat liver dihydrofolate reductase
# T3 sequence (Q920D2 whole entry): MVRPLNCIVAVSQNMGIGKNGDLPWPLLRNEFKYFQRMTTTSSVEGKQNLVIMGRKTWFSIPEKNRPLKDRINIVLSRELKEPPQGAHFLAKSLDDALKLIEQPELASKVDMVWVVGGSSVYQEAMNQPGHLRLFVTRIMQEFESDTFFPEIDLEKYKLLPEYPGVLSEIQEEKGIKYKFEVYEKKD
# [4] = target: Dihydrofolate reductase; T. gondii vs rat (Toxoplasma gondii) (UniProt Q920D2+Q07422); assay: Ratio of binding to rat liver and Toxoplasma gondii dihydrofolate reductase
# CCRF-CEM [5] = assay: Growth inhibition of parental CCRF-CEM cells.; format: functional, cell-based; conditions: Homo sapiens
# CCRF-CEM [6] = assay: Growth inhibition of […], defined mechanisms of MTX resistance during continuous (0-120 h) exposure; format: functional, cell-based; conditions: Homo sapiens
# CCRF-CEM [7] = assay: Growth inhibition of CCRF-CEM cells resistant to MTX; format: functional, cell-based; conditions: Homo sapiens
# FaDu [8] = assay: Growth inhibition of FaDu human head and neck squamous cell carcinoma cell lines.; format: functional, cell-based
# CCRF-CEM [9] = assay: Growth inhibition of DHFR-overexpressing cells, defined mechanisms of MTX resistance during continuous (0-120 h) exposure; format: functional, cell-based; conditions: Homo sapiens
# A253 cell line = assay: Growth inhibition of A253 cell lines.; format: functional, cell-based; conditions: Homo sapiens
# FaDu [10] = assay: Relative growth inhibition of FaDu cells at 9 uM drug concentration and in presence of thymidine and hypoxanthine.; format: functional, Homo sapiens
# FaDu [11] = assay: Relative growth inhibition of FaDu cells in absence of metabolite at 9 uM concentration.; format: functional, Homo sapiens
# FaDu [12] = assay: Relative growth inhibition of FaDu cells at 9 uM drug concentration and in presence of 10 uM Leucovorin.; format: functional, Homo sapiens
# FaDu [13] = assay: Relative growth inhibition of FaDu cells at 9 uM drug concentration and in presence of 40 uM Thymidine.; format: functional, Homo sapiens
# FaDu [14] = assay: Relative growth inhibition of FaDu cells at 9 uM drug concentration and in presence of 50 uM Hypoxanthine.; format: functional, Homo sapiens
# Thymidylate synthase [15] = target: Thymidylate synthase (Escherichia coli, UniProt C3SWJ7); assay: Inhibitory activity against Escherichia coli thymidylate synthase
# Thymidylate synthase [16] = target: Thymidylate synthase (Homo sapiens, UniProt P04818); assay: Inhibitory activity against human thymidylate synthase
# Dihydrofolate reductase [17] = target: T4, Dihydrofolate reductase (Homo sapiens, UniProt P00374)
# T4 sequence (P00374 whole entry): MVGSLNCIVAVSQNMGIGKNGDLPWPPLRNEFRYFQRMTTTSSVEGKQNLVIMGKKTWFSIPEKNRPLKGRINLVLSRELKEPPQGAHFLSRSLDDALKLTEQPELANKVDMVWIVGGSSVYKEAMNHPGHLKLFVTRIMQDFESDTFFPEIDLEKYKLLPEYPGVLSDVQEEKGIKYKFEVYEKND
# Description: Inhibitory activity against human dihydrofolate reductase
# Chain of Thymidylate synthase (Homo sapiens, UniProt P04818) (P04818 whole entry): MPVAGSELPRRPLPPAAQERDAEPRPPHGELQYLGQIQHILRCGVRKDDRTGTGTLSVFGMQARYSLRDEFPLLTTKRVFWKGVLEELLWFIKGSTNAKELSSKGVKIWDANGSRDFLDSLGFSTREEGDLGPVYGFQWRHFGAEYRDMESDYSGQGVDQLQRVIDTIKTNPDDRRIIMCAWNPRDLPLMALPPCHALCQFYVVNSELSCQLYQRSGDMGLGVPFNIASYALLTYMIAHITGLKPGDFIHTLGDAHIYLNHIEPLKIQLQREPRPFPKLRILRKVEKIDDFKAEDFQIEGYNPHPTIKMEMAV
# Chain of Thymidylate synthase (Escherichia coli, UniProt C3SWJ7) (C3SWJ7 whole entry): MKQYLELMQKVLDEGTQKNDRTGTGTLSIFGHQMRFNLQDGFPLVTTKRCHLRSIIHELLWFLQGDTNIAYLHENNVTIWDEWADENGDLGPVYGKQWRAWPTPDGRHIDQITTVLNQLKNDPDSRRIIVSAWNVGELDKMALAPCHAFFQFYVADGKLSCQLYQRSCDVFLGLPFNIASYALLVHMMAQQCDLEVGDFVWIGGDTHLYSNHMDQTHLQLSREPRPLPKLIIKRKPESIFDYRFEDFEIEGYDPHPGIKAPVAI
SMILES,pIC50 (Dihydrofolate reductase [1]),pIC50 [2],pIC50 (Dihydrofolate reductase [3]),Ratio [4],other results
COc1cc(NCc2c[nH]c3nc(N)nc(O)c23)cc(OC)c1OC,< 4.66,5.03,4.66,> 2.4,–
Nc1nc2[nH]cc(CNc3ccc(Cl)cc3Cl)c2c(=O)[nH]1,< 4.82,–,4.82,–,–
Nc1nc(O)c2c(CNc3cc(Cl)ccc3Cl)c[nH]c2n1,< 4.60,6.18,4.60,> 38,–
COc1ccc(OC)c(NCc2c[nH]c3nc(N)nc(O)c23)c1,< 4.33,–,4.33,> 21,pEC50 (CCRF-CEM [5]): 6.64; pEC50 (CCRF-CEM [6]): 5.82; pEC50 (CCRF-CEM [7]): 6.34; pEC50 (FaDu [8]): < 5.00; pEC50 (CCRF-CEM [9]): 6.38; pEC50 (A253 cell line): < 5.00
COc1ccc(OC)c(N(C)Cc2c[nH]c3nc(N)[nH]c(=O)c23)c1,< 4.25,4.99,4.25,–,–
COc1cc(NCc2c[nH]c3nc(N)nc(O)c23)cc(OC)c1,–,–,–,> 8,–
Nc1nc(O)c2c(CNc3ccc(C(=O)N[C@@H](CCC(=O)O)C(=O)O)cc3)c[nH]c2n1,–,6.10,–,–,pEC50 (CCRF-CEM [5]): 7.10; pEC50 (CCRF-CEM [6]): 6.51; pEC50 (CCRF-CEM [7]): 6.92; Relative growth (FaDu [10]): 79; Relative growth (FaDu [11]): 5; pEC50 (FaDu [8]): 6.10; Relative growth (FaDu [12]): 64; Relative growth (FaDu [13]): 74; Relative growth (FaDu [14]): 5; pIC50 (Thymidylate synthase [15]): < 3.92; pIC50 (Thymidylate synthase [16]): 4.34; pEC50 (CCRF-CEM [9]): 6.70; pEC50 (A253 cell line): 6.00; pIC50 (Dihydrofolate reductase [17]): 5.00
Nc1nc(O)c2c(CNc3cccc(Cl)c3)c[nH]c2n1,–,–,–,> 7,–
COc1cc(OC)cc(N(C)Cc2c[nH]c3nc(N)nc(O)c23)c1,< 4.06,5.38,4.06,> 21,–
COc1ccc(OC)c(N(C)Cc2c[nH]c3nc(N)nc(O)c23)c1,–,–,–,> 6,–
Nc1nc2[nH]cc(CCc3ccc(C(=O)N[C@@H](CCC(=O)O)C(=O)O)cc3)c2c(=O)[nH]1 [PEMETREXED],–,–,–,–,pIC50 (Thymidylate synthase [16]): 5.24
COc1cc(N(C)Cc2c[nH]c3nc(N)[nH]c(=O)c23)cc(OC)c1OC,< 4.35,4.43,4.35,–,–
Nc1nc2[nH]cc(CNc3cc(Cl)cc(Cl)c3)c2c(=O)[nH]1,–,5.39,4.20,–,–
Nc1nc(O)c2c(CNc3ccc(Cl)cc3Cl)c[nH]c2n1,–,–,–,> 7,–
CN(Cc1cnc2nc(N)nc(N)c2n1)c1ccc(C(=O)N[C@@H](CCC(=O)O)C(=O)O)cc1 [METHOTREXATE],–,–,–,–,pEC50 (A253 cell line): 7.72
COc1ccc(NCc2c[nH]c3nc(N)nc(O)c23)c(OC)c1,< 4.80,–,4.80,> 2.3,–
Nc1nc(O)c2c(CNc3cc(Cl)cc(Cl)c3)c[nH]c2n1,–,–,–,> 15.4,–
Nc1nc2[nH]cc(CNc3cccc(Cl)c3)c2c(=O)[nH]1,< 4.59,–,4.59,–,–
COc1cc(NCc2c[nH]c3nc(N)[nH]c(=O)c23)cc(OC)c1,< 4.70,–,4.70,–,–
COc1cc(N(C)Cc2c[nH]c3nc(N)nc(O)c23)cc(OC)c1OC,–,–,–,> 2,–

# — ChEMBL document CHEMBL1134503, “Synthesis, antifolate, and antitumor activities of classical and nonclassical 2-amino-4-oxo-5-substituted-pyrrolo[2,3-d]pyrimidines” (J Med Chem, 2001)
